The values that follow come from patent US9006278B2, “Controlled release systems of pluribioactive antifungal drugs and applications thereof” (Poly-Med, Inc., priority 2010, dated 2015).

Holding throughout (type): cell-based
The subject of one experiment is Candida albicans. In words: Broth culture growth inhibition, absorbance at 600 nm (Candida albicans). The conditions noted are these: overnight (approx. 16 hours), read-out: % Inhibition C. albicans. How it is done:
(§1) Bacterial and fungal cultures (Staphylococcus aureus and Candida albicans) were maintained according to manufacturer (ATCC) instructions. Broth was inoculated according to 0.5 McFarland standard (0.05 absorbance reading). Miconazole or ketoconazole was dissolved in ethanol to create a stock solution. Cultures were incubated overnight (approximately 16 hours), at which time relative absorbance was recorded for each sample using a spectrophotometer (600 nm wavelength). Absorbance values were then used to calculate percent inhibition.

Experiment [1] has as its system human aortic smooth muscle cells. Kind of experiment: Cell viability, CellTiter 96 AQueous One (smooth muscle). The conditions noted are these: 48 h, 2 days. As to the method: (§2) To examine the effect of miconazole and ketoconazole on cancer cells (SKOV3, OVCAR3, and MCF7) and vascular cells (human aortic smooth muscle and umbilical vein endothelium), each cell type was seeded in separate 24-well plates at a density of approximately 50,000 to 100,000 cells/cm^2. After incubation under standard cell culture conditions (that is, a 37° C., humidified, 5% CO2 environment) for approximately 24 hours, media was aspirated from each well, and replaced with the appropriate treatments. Miconazole or ketoconazole was dissolved in ethanol to create a stock solution. […] The same volume of ethanol was added to control wells, but no drug was present. Cells were further incubated for 2 days. At that time, cell viability was measured using a commercially available kit, according to manufacturer instructions (CellTiter 96® AQueous One Solution Cell Proliferation Assay, Promega). All samples were prepared in triplicate. Percent inhibition was then calculated using the absorbance values.

Another experiment deals with Staphylococcus aureus. Kind of experiment: Broth culture growth inhibition, absorbance at 600 nm (Staphylococcus aureus). The following applies: overnight (approx. 16 hours), read-out: % Inhibition S. aureus. How it is done: as §1
Experiment [2] concerns umbilical vein endothelium cells. In words: Cell viability, CellTiter 96 AQueous One (endothelium). The following applies: Homo sapiens, 48 h, 2 days, read-out: % Inhibition Endothelial. As to the method: as §2
For experiment [3], the system named is SKOV3 ovarian cancer cells. Kind of experiment: Cell viability, CellTiter 96 AQueous One (SKOV3). The following applies: Homo sapiens, SK-OV-3, 48 h, 2 days. As to the method:
as §2

Experiment [4] concerns OVCAR3 ovarian cancer cells. Kind of experiment: Cell viability, CellTiter 96 AQueous One (OVCAR3). The conditions noted are these: Homo sapiens, OVCAR-3, 48 h, 2 days. How it is done: as §2
Another experiment deals with MCF7 breast cancer cells. Kind of experiment: Cell viability, CellTiter 96 AQueous One (MCF7). The following applies: Homo sapiens, MCF7, 48 h, 2 days. How it is done:
as §2

`CC(=O)N1CCN(c2ccc(OCC3COC(Cn4ccnc4)(c4ccc(Cl)cc4Cl)O3)cc2)CC1` (stereo not shown) [Ketoconazole, ketoconazole]: the inhibition (commonly the relative decrease from the control value, in per cent) at 40 µg/mL was 93.8% with Candida albicans (40 μg/mL); 31% in experiment [1] (40 μg/mL); 32.7% in the experiment on Staphylococcus aureus (40 μg/mL); 16% in experiment [2] (40 μg/mL); 0% in experiment [3] (40 μg/mL); 0% in experiment [4] (40 μg/mL). For the same molecule, the inhibition at 40 µg/mL in the experiment on MCF7 breast cancer cells (40 μg/mL) worked out at 58%. For the same molecule, the inhibition at 80 µg/mL in the experiment with Candida albicans (80 μg/mL) was found to be 98.6%; in experiment [1] (80 μg/mL) it was 68%; in the experiment on Staphylococcus aureus (80 μg/mL) it was 67.6%; in experiment [2] (80 μg/mL), 38%; in experiment [3] (80 μg/mL), 51%; in experiment [4] (80 μg/mL), 57%. Also, 80 µg/mL produced 50% inhibition in the experiment with MCF7 breast cancer cells (80 μg/mL).
For the molecule `Clc1ccc(COC(Cn2ccnc2)c2ccc(Cl)cc2Cl)c(Cl)c1` (stereo not shown) [Miconazole, miconazole], the inhibition at 20 µg/mL in the experiment on Candida albicans (20 μg/mL) amounted to 98.3%; in experiment [1] (20 μg/mL), 58%; in the experiment with Staphylococcus aureus (20 μg/mL), 76.7%; in experiment [2] (20 μg/mL) it was 18%; in experiment [3] (20 μg/mL), 13%; in experiment [4] (20 μg/mL) it was 19%. Moreover, testing at 20 µg/mL with MCF7 breast cancer cells (20 μg/mL) gave an inhibition of 19%. The inhibition at 60 µg/mL worked out at 73.2% in the experiment with Candida albicans (60 μg/mL); 84% in experiment [1] (60 μg/mL); 65% with Staphylococcus aureus (60 μg/mL); 58% in experiment [2] (60 μg/mL); 61% in experiment [3] (60 μg/mL); 57% in experiment [4] (60 μg/mL). This molecule also registered an inhibition at 60 µg/mL with MCF7 breast cancer cells (60 μg/mL) of 55%.
